Laboratory results: patent US20260060982A1, “USE OF BTK INHIBITOR AND SINGLE-DOSE DRUG” (HUBEI BIO-PHARMACEUTICAL INDUSTRIAL TECHNOLOGICAL INSTITUTE …, priority 2023, published 2026)

Test system: PG-PS-induced arthritis in Lewis rats
Test: PG-PS-induced arthritis model in rats
Format: in vivo
Settings: for joint tissue lesions (pathology): day 30
From the text: Intraperitoneal injection of PG-PS suspension can effectively induce chronic, erosive, and relapsing symptoms similar to human rheumatoid arthritis in rats, and is often used to evaluate the in vivo effectiveness of medicaments in the early discovery of arthritis medicaments. The specific steps were as follows:
On day 0, Lewis rats were randomly divided into 6 groups, with 5 rats in the first group and 10 rats in each group from the second group to the sixth group. All rats in the second to sixth groups were intraperitoneally injected with PG-PS (Lee Laboratories, PG-PS 10S, 5.1 mg/ml Rhamnose) to establish the model. The PG-PS injection dose v=15 μg/g×bw (rat weight, in g)/5.1 μg/μL.
On day 1, the model rats (the second to sixth groups) were randomly redivided into 5 groups, with 10 rats in each group. The animals in each group were given the corresponding medicament or vehicle by gavage once a day until the 29th day. […] Clinical observations and clinical scoring were performed daily during the administration period. The ankle diameter of each animal after modeling was subtracted from its ankle diameter before modeling to obtain the ankle diameter difference (delta ankle diameter). The area under the curve (AUC) was calculated by analyzing the ankle diameter difference of each animal in each group. The inhibition rate of each administration group relative to the blank vehicle control was calculated by the average AUC between groups.
Pathology: On day 30, the rats were euthanized. The two hind limbs of rats were stained with toluidine blue to evaluate the degree of joint damage in terms of inflammatory cell lesions, pannus formation, cartilage damage, bone resorption, and periosteal new bone formation, and the severity was scored on a scale from 0 to 7.

C=CC(=O)N1CCC[C@@H](n2nc(-c3ccc(Oc4ccccn4)cc3)c3c(N)n[nH]c(=O)c32)C1 [compound (I), (R)-1-(1-acryloylpiperidin-3-yl)-4-amino-3-(4-(pyridin-2-yloxy)phenyl)-1H-pyrazolo[3,4-d]pyridazin-7(6H)-one]
inhibition rate (AUC of ankle diameter difference vs blank vehicle control) (1 mg/kg once a day by gavage until the 29th day): 47.7% | joint tissue lesions (pathology) (1 mg/kg): trend of alleviating tissue damage | inhibition rate (AUC of ankle diameter difference vs blank vehicle control) (3 mg/kg once a day by gavage until the 29th day): 64.7% | joint tissue lesions (pathology) (3 mg/kg): significant improvement effect | inhibition rate (AUC of ankle diameter difference vs blank vehicle control) (10 mg/kg once a day by gavage until the 29th day): 77.3% | joint tissue lesions (pathology) (10 mg/kg): significant improvement effect
